Data on twelve molecules can be found in patent publication US9403823B2, “Protein kinase inhibitors” (ORIBASE PHARMA, priority 2012, dated 2016).

One experiment deals with T1, BRAF (Homo sapiens, UniProt P15056).
T1 construct: purchased Invitrogen
Kind of experiment: In vitro kinase assay (Z'-LYTE), BRAF. The format is biochemical. Conditions: read-out: % of inhibition of the kinase compared to the control. The protocol: (§1) 1) In Vitro Kinase Assays (Table 10 to Table 21)
(§2) The inhibitory activity of the compounds on several kinases including BRAF, EGFR (ErbB1), EGFR (ErbB1) T790M L858R, FGFR2, KDR (VEGFR2), PDGFRA (PDGFR alpha), SRC and other was evaluated by Invitrogen using the Z′-LYTE® technology. Briefly, the Z′-LYTE® biochemical assay employs a fluorescence-based, coupled-enzyme format and is based on the differential sensitivity of phosphorylated and non-phosphorylated peptides to proteolytic cleavage. The peptide substrate is labeled with two fluorophores—one at each end—that make up a FRET pair. A ratiometric method, which calculates the ratio (the Emission Ratio) of donor emission to acceptor emission after excitation of the donor fluorophore at 400 nm, is used to quantitate reaction progress.
(§3) The compounds are screened in 1% DMSO (final) in the well. For 10 point titrations, 3-fold serial dilutions are conducted from the starting concentration. All Peptide/Kinase Mixtures are diluted to a 2× working concentration in the appropriate Kinase Buffer. All ATP Solutions are diluted to a 4× working concentration in Kinase Buffer (50 mM HEPES pH 7.5, 0.01% BRIJ-35, 10 mM MgCl2, 1 mM EGTA). ATP Km apparent is previously determined using a Z′-LYTE® assay.
(§4) Each compound was incubated at a concentration of 100 nM (excepted to test the activity against ABL and ABL T315I for which the compounds were incubated at a concentration of 10 μM) and the tables 10 to 21 summarize the results obtained showing the inhibitory power of a compound.

The target of another experiment is T2, EGFR (ErbB1) (Homo sapiens, UniProt P00533).
T2 construct: purchased Invitrogen
T2 sequence (P00533 25-1210): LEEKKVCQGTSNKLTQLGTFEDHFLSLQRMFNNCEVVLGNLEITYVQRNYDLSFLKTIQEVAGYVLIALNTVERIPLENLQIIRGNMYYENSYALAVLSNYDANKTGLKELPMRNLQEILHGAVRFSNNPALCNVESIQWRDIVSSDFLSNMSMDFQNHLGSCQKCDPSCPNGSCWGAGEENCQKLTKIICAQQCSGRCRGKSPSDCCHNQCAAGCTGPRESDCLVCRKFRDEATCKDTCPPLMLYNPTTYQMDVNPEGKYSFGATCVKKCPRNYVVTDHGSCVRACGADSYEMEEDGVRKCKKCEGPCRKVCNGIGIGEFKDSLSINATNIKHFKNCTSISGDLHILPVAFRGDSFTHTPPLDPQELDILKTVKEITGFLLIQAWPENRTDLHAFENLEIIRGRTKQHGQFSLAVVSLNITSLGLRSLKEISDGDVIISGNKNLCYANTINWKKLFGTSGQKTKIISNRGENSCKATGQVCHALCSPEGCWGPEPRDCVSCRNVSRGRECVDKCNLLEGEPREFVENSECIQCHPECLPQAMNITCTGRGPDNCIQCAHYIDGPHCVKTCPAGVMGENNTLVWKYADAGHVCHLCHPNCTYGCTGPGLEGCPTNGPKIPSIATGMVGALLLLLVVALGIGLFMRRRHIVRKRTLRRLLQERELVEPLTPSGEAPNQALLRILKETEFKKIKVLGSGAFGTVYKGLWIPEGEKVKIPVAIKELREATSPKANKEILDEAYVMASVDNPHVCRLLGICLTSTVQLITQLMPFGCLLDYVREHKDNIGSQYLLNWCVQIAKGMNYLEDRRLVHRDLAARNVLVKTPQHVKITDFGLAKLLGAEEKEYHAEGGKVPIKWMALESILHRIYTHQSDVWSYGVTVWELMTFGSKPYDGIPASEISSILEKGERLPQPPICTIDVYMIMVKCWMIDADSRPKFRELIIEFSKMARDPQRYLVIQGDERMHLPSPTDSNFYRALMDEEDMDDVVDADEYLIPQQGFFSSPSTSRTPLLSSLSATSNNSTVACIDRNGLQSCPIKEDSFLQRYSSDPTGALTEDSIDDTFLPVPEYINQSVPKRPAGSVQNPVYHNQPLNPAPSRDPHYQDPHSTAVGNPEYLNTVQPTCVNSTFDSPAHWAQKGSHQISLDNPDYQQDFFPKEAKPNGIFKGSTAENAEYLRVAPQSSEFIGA
Kind of experiment: In vitro kinase assay (Z'-LYTE), EGFR (ErbB1). The following applies: read-out: % of inhibition of the kinase compared to the control. Type of experiment: biochemical. The protocol: as §1, §2, §3, §4

The target of another experiment is T3, FGFR2 (Homo sapiens, UniProt P21802).
T3 construct: purchased Invitrogen
T3 sequence (P21802 22-821): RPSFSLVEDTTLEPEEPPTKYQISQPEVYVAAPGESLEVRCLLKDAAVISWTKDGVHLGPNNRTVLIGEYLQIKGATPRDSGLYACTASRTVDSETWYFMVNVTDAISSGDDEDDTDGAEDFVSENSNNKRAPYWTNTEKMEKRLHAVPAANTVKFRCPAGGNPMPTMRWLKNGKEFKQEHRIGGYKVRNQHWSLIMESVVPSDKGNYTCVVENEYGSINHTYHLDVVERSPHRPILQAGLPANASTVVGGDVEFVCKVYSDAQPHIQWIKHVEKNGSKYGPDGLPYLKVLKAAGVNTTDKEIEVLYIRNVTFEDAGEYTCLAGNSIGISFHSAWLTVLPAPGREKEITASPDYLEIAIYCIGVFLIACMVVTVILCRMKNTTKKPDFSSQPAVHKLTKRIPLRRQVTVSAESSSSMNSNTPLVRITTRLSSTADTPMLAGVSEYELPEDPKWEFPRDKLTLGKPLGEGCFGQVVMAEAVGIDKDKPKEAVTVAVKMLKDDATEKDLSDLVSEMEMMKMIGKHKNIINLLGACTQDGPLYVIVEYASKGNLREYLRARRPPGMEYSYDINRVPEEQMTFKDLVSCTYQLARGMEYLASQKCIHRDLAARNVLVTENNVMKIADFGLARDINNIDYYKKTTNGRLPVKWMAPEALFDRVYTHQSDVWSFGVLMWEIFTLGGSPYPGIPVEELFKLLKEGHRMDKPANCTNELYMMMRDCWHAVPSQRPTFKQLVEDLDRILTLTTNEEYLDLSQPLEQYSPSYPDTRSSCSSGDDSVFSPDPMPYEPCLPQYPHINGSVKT
Kind of experiment: In vitro kinase assay (Z'-LYTE), FGFR2. Conditions: read-out: % of inhibition of the kinase compared to the control. The format is biochemical. Here is the method: as §1, §2, §3, §4

The target in the next experiment is T4, KDR (VEGFR2) (Homo sapiens, UniProt P35968).
T4 construct: purchased Invitrogen
T4 sequence (P35968 20-1356): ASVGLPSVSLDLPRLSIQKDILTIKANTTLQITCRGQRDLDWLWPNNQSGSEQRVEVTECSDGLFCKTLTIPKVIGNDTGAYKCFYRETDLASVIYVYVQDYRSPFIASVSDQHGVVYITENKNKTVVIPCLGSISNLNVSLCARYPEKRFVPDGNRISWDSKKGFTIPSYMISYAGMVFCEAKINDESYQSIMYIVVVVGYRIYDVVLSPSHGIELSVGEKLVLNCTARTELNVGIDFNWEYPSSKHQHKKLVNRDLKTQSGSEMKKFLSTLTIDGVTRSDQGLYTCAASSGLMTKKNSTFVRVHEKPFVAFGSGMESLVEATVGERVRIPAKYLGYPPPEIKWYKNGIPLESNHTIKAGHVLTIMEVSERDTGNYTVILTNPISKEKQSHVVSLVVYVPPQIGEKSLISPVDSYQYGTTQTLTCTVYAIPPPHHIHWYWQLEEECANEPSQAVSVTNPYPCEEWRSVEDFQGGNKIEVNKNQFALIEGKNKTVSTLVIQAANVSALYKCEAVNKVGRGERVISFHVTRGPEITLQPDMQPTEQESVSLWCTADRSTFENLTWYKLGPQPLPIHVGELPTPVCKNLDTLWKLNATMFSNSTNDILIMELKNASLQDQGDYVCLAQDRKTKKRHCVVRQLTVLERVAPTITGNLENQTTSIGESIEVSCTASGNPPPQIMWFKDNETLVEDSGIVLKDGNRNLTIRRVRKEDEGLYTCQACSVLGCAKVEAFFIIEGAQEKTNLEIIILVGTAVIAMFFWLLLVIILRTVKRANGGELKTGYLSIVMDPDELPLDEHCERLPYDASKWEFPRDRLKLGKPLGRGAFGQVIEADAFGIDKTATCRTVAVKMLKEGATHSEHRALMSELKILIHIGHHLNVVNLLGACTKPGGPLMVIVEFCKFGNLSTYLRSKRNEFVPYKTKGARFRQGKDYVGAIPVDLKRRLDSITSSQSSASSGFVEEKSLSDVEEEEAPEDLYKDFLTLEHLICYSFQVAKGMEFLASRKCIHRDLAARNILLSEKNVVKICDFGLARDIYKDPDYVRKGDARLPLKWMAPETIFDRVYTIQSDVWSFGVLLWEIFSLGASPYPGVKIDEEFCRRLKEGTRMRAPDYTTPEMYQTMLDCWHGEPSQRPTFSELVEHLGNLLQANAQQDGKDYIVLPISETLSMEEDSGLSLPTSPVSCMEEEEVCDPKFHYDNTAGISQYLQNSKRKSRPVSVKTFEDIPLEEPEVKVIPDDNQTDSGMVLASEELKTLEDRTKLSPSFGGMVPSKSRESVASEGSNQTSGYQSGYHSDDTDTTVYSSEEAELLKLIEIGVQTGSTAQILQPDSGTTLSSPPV
Kind of experiment: In vitro kinase assay (Z'-LYTE), KDR (VEGFR2). Type of experiment: biochemical. The following applies: read-out: % of inhibition of the kinase compared to the control. Here is the method: as §1, §2, §3, §4

Another experiment concerns the target T5, PDGFRA (PDGFR alpha) (Homo sapiens, UniProt P16234).
T5 construct: purchased Invitrogen
Kind of experiment: In vitro kinase assay (Z'-LYTE), PDGFRA. The format is biochemical. Conditions: read-out: % of inhibition of the kinase compared to the control. The protocol: as §1, §2, §3, §4

In the next experiment the target is T6, SRC (Homo sapiens, UniProt P12931).
T6 construct: purchased Invitrogen
T6 sequence (P12931 whole entry): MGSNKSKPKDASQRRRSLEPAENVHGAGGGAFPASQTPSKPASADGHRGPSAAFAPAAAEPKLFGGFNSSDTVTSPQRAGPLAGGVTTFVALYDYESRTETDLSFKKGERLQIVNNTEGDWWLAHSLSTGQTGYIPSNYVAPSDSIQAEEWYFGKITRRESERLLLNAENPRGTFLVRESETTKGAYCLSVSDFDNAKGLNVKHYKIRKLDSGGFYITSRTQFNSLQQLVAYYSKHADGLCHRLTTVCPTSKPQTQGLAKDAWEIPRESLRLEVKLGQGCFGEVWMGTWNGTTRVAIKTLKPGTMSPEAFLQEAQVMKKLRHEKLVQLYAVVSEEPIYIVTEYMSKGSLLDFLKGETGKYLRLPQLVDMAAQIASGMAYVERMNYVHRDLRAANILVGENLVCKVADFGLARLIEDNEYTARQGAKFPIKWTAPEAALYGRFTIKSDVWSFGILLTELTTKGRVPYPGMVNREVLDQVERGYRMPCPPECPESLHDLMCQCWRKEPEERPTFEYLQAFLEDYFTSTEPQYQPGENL
Kind of experiment: In vitro kinase assay (Z'-LYTE), SRC. Type of experiment: biochemical. Conditions: read-out: % of inhibition of the kinase compared to the control. The protocol:
as §1, §2, §3, §4

For a further experiment, the system named is HepG2 cell line. Kind of experiment: In vitro cell proliferation assay (MTT), HepG2. The format is cell-based. The following applies: Homo sapiens, read-out: EC50, anti-proliferative activity. Here is the method: (§5) 2) In Vitro Cell Proliferation Assays (Table 22 to Table 35)
(§6) Cancer cell lines (5×10^3 cells per well) or HUVEC (1×10^4 cells per well) or HRMEC (1×10^4 cells per well) were distributed in 96-well plates and incubating in duplicate with escalating concentrations (10 nM to 3 μM) of compounds for 72 hr. Cell proliferation was measured using MTT (3[4,5-dimethylthiazol-2-yl]-2,5-diphenyltetrazolium bromide).

The test system of a further experiment is HUVEC. Kind of experiment: In vitro cell proliferation assay (MTT), HUVEC. The format is cell-based. The following applies: Homo sapiens, read-out: EC50, anti-proliferative activity. Here is the method: as §5, §6

pEC50: −log10 of the molar value. Read-outs that look alike come from different tables or passages of the source.

T1 sequence (P15056 whole entry): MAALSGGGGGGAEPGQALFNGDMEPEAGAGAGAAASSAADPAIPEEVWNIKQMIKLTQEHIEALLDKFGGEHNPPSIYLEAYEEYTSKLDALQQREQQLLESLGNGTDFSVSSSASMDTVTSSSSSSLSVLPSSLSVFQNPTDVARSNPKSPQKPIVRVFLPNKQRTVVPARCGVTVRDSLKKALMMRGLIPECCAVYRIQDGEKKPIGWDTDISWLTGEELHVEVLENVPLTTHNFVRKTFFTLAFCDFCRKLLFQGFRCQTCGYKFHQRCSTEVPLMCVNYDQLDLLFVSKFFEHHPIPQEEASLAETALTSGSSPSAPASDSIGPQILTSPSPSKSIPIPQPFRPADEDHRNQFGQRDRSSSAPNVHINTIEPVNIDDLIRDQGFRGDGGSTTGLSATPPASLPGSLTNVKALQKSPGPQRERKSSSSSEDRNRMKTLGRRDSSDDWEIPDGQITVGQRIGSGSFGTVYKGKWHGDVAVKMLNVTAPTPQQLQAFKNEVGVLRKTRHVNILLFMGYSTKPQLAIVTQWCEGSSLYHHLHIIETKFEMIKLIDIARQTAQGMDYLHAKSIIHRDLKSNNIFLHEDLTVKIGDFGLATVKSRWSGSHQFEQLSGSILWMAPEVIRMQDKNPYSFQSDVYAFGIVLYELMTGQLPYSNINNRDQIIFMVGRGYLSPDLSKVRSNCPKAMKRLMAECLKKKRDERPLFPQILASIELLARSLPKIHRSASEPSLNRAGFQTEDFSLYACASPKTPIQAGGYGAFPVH

A word on the inhibition: it is how much of the control response was suppressed. A word on the pEC50: it is −log10 of the EC50, conventionally taken in molar units. Regarding `CC(=O)c1cc2cc(NCc3cc(NC(=O)c4ccnc(C)c4)ccc3C)cnc2[nH]1` [OR0889, N-{3-[(2-Acetyl-1H-pyrrolo[2,3-b]pyridin-5-ylamino)-methyl]-4-methyl-phenyl}-2-methyl-isonicotinamide], the inhibition at 0.1 µM on BRAF was not below 50%; at EGFR (ErbB1), less than 50%; on FGFR2, less than 50%; on KDR (VEGFR2) it was less than 50%; at PDGFRA (PDGFR alpha), not below 50%; on SRC, less than 50%. The pEC50 in the experiment on HepG2 cell line (HepG2, 72 hr, MTT) was not above 6.00; in the experiment with HUVEC (72 h), 6.00 to 7.00.

On to `CC(=O)c1cc2cc(NCc3cc(NC(=O)c4ccc(C)c(C(F)(F)F)c4)ccc3C)cnc2[nH]1` [OR0890, N-{3-[(2-Acetyl-1H-pyrrolo[2,3-b]pyridin-5-ylamino)-methyl]-4-methyl-phenyl}-4-methyl-3-trifluoromethyl-benzamide], for which the inhibition at 0.1 µM on BRAF is less than 50%; on EGFR (ErbB1) it was not below 50%; at FGFR2, less than 50%; at KDR (VEGFR2) it was less than 50%; at PDGFRA (PDGFR alpha), not below 50%; at SRC it was not below 50%. The negative logarithm of the EC50 (pEC50) in the experiment with HepG2 cell line (HepG2, 72 h) was 6.00 to 7.00; in the experiment on HUVEC (72 h), 6.00 to 7.00.

For the molecule `CC(=O)c1cc2cc(NCc3cc(NC(=O)c4ccc(Cl)c(C(F)(F)F)c4)ccc3C)cnc2[nH]1` [OR0891, N-{3-[(2-Acetyl-1H-pyrrolo[2,3-b]pyridin-5-ylamino)-methyl]-4-methyl-phenyl}-4-chloro-3-trifluoromethyl-benzamide], the inhibition at 0.1 µM at BRAF, at EGFR (ErbB1), on FGFR2, on KDR (VEGFR2), on PDGFRA (PDGFR alpha) and on SRC was less than 50% in each case. The negative-log EC50 (pEC50) is 6.00 to 7.00 with HepG2 cell line (HepG2, 72 h) and 6.00 to 7.00 in the experiment with HUVEC (72 h).

As for `CC(=O)c1cc2cc(NCc3cc(NC(=O)Nc4cccc(C(F)(F)F)c4)ccc3C)cnc2[nH]1` [OR0895, 1-{3-[(2-Acetyl-1H-pyrrolo[2,3-b]pyridin-5-ylamino)-methyl]-4-methyl-phenyl}-3-(3-trifluoromethyl-phenyl)-urea], the inhibition at 0.1 µM at BRAF is less than 50%; on EGFR (ErbB1) it was less than 50%; on FGFR2, less than 50%; at KDR (VEGFR2), less than 50%; on PDGFRA (PDGFR alpha), not below 50%; at SRC it was less than 50%. Moreover, the negative-log EC50 (pEC50) in the experiment on HepG2 cell line (HepG2, 72 h) was 6.00 to 7.00; in the experiment with HUVEC (72 hr, MTT) it was not above 6.00.

Turning to `CC(=O)c1cc2cc(NCc3cc(NC(=O)Nc4cccnc4)ccc3C)cnc2[nH]1` [OR0897, 1-{3-[(2-Acetyl-1H-pyrrolo[2,3-b]pyridin-5-ylamino)-methyl]-4-methyl-phenyl}-3-pyridin-3-yl-urea], the inhibition at 0.1 µM is not below 50% on BRAF; less than 50% on EGFR (ErbB1); less than 50% at FGFR2; less than 50% at KDR (VEGFR2); not below 50% on PDGFRA (PDGFR alpha); less than 50% at SRC. In addition, the pEC50 was not below 7.00 with HepG2 cell line (HepG2, 72 h) and not above 6.00 in the experiment on HUVEC (72 hr, MTT).

In the case of `CC(=O)c1cc2cc(NCc3cc(NC(=O)C4CC4)ccc3C)cnc2[nH]1` [OR0929, Cyclopropanecarboxylic acid {3-[(2-acetyl-1H-pyrrolo[2,3-b]pyridin-5-ylamino)-methyl]-4-methyl-phenyl}-amide], the inhibition at 0.1 µM on BRAF, on EGFR (ErbB1), on FGFR2, on KDR (VEGFR2), on PDGFRA (PDGFR alpha) and at SRC was less than 50% in each case. Further, the pEC50 with HepG2 cell line (HepG2, 72 hr, MTT) is not above 6.00; with HUVEC (72 hr, MTT), not above 6.00.

In the case of `CC(=O)c1cc2cc(NCc3cc(NS(=O)(=O)c4cccc(C(F)(F)F)c4)ccc3C)cnc2[nH]1` [OR0930, N-{3-[(2-Acetyl-1H-pyrrolo[2,3-b]pyridin-5-ylamino)-methyl]-4-methyl-phenyl}-3-trifluoromethyl-benzenesulfonamide], the inhibition at 0.1 µM on BRAF, on EGFR (ErbB1), at FGFR2, on KDR (VEGFR2), on PDGFRA (PDGFR alpha) and at SRC was less than 50% throughout. Also, the pEC50 is not above 6.00 with HepG2 cell line (HepG2, 72 hr, MTT) and not above 6.00 in the experiment on HUVEC (72 hr, MTT).

Take `CC(=O)c1cc2cc(NCc3cccc(NC(=O)c4cncc(C(F)(F)F)c4)c3)cnc2[nH]1` [OR0950, N-{3-[(2-Acetyl-1H-pyrrolo[2,3-b]pyridin-5-ylamino)-methyl]-phenyl}-5-trifluoromethyl-nicotinamide]: the inhibition at 0.1 µM on BRAF is not below 50%; on EGFR (ErbB1), less than 50%; at FGFR2, less than 50%; on KDR (VEGFR2), not below 50%; on PDGFRA (PDGFR alpha), not below 50%; at SRC, less than 50%. Further, the pEC50 in the experiment with HepG2 cell line (HepG2, 72 h) is 6.00 to 7.00; with HUVEC (72 hr, MTT), not above 6.00.

Regarding `CC(=O)c1cc2cc(NC(=O)c3cc(NC(=O)Nc4cccc(C(F)(F)F)c4)ccc3C)cnc2[nH]1` [OR0951, N-(2-Acetyl-1H-pyrrolo[2,3-b]pyridin-5-yl)-2-methyl-5-[3-(3-trifluoromethyl-phenyl)-ureido]-benzamide], the inhibition at 0.1 µM on BRAF, at EGFR (ErbB1), at FGFR2, at KDR (VEGFR2), at PDGFRA (PDGFR alpha) and at SRC was less than 50% in each case. Besides, the pEC50 in the experiment on HepG2 cell line (HepG2, 72 h) is not below 7.00; in the experiment with HUVEC (72 hr, MTT) it was not above 6.00.

As to `CC(=O)c1cc2cc(NCc3cc(NC(=O)Cc4cccc(C(F)(F)F)c4)ccc3C)cnc2[nH]1` [OR0968, N-{3-[(2-Acetyl-1H-pyrrolo[2,3-b]pyridin-5-ylamino)-methyl]-4-methyl-phenyl}-2-(3-trifluoromethyl-phenyl)-acetamide], the inhibition at 0.1 µM is not below 50% at BRAF; less than 50% on EGFR (ErbB1); less than 50% on FGFR2; less than 50% on KDR (VEGFR2); not below 50% on PDGFRA (PDGFR alpha); less than 50% on SRC. The negative-log EC50 (pEC50) with HepG2 cell line (HepG2, 72 h) was 6.00 to 7.00; with HUVEC (72 hr, MTT) it was not above 6.00.

Turning to `CC(=O)c1cc2cc(NCc3cc(NC(=O)c4ccc5[nH]nnc5c4)ccc3C)cnc2[nH]1` [OR0979, 1H-Benzotriazole-5-carboxylic acid {3-[(2-acetyl-1H-pyrrolo[2,3-b]pyridin-5-ylamino)-methyl]-4-methyl-phenyl}-amide], the inhibition at 0.1 µM is not below 50% at BRAF; less than 50% at EGFR (ErbB1); less than 50% on FGFR2; less than 50% on KDR (VEGFR2); not below 50% on PDGFRA (PDGFR alpha); less than 50% on SRC. For the same molecule, the pEC50 is not above 6.00 with HepG2 cell line (HepG2, 72 hr, MTT) and not above 6.00 in the experiment with HUVEC (72 hr, MTT).

For the molecule `CC(=O)c1cc2cc(NCc3cc(NC(=O)c4ccc5[nH]ccc5c4)ccc3C)cnc2[nH]1` [OR0980, 1H-Indole-5-carboxylic acid {3-[(2-acetyl-1H-pyrrolo[2,3-b]pyridin-5-ylamino)-methyl]-4-methyl-phenyl}-amide], the inhibition at 0.1 µM is not below 50% at BRAF; less than 50% at EGFR (ErbB1); less than 50% on FGFR2; less than 50% at KDR (VEGFR2); not below 50% on PDGFRA (PDGFR alpha); less than 50% on SRC. Further, the pEC50 in the experiment with HepG2 cell line (HepG2, 72 h) is 6.00 to 7.00; with HUVEC (72 hr, MTT) it was not above 6.00.
